For one compound, Ki results are on record in ChEMBL document CHEMBL1137557, “Geometry of GPPE binding to picrate and to the urokinase type plasminogen activator” (Bioorg Med Chem Lett, 2007).

A value given as a limit tells only on which side of the number the result lay.

Test [1] addresses Urokinase-type plasminogen activator (Homo sapiens, UniProt P00749). In words: Inhibition of uPA.
A further test has as its target Trypsin (Homo sapiens, UniProt P07477+P07478+P35030). In words: Inhibition of trypsin. The class given is protein assay.
Test [2] addresses Tissue-type plasminogen activator (Homo sapiens, UniProt P00750). The test can be described thus: Inhibition of tPA.

Chain of Tissue-type plasminogen activator (P00750 whole entry): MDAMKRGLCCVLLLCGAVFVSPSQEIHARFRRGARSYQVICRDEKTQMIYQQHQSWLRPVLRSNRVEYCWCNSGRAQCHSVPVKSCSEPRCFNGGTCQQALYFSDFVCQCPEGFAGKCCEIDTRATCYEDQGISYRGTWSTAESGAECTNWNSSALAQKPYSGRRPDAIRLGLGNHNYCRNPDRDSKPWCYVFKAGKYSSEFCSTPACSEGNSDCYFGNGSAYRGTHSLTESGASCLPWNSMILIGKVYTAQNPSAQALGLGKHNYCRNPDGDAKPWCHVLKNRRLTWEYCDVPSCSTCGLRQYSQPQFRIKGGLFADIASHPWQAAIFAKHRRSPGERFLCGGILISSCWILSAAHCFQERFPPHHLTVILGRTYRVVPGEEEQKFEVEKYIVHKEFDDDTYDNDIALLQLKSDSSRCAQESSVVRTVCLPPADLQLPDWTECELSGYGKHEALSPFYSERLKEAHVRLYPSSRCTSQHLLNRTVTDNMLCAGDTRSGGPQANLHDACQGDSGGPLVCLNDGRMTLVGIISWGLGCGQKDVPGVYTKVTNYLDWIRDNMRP

As to `N=C(N)Nc1ccc(CC(=O)c2ccccc2)cc1`, the Ki in test [1] is 34 µM; at Trypsin, 160 µM; in test [2] it was > 1000 µM.
